Measurements as given in patent publication US6166076A, “Taste enhancing food additives” (Board of Supervisors of Louisiana State University and …, priority 1997, dated 2000).

Assays:
[1] = test system: inactivating A-type K^+ channels (IA); assay: whole-cell patch clamp, inactivating A-type K^+ current (IA) in rat fungiform taste receptor cells; assay type: cell-based, rat (Sprague-Dawley); settings: 4-AP 10 mM; in presence of arachidonic acid; n=10 cells
Method: (§1) Voltage-activated currents were recorded from individual taste receptor cells maintained in the taste bud using the whole-cell patch clamp configuration, as generally described in Hamill et al., "Improved Patch-clamp Techniques for High-resolution Current Recording from Cells and Cell-free Membrane Patches," Pflugers Arch., Vol. 391, pp. 85-100 (1981). […]
(§2) Typical seal resistances on TRC membranes ranged from […] to greater than 50 G.OMEGA.. […] Commands were delivered and data recorded using pCLAMP software (version 6.0.3) interfaced to an AxoPatch 200A amplifier with a Digidata 1200A A-D board (Axon Instruments, Foster City, Calif.). […]
(§3) For analysis, currents during FFA application were averaged over a consistent time range corresponding to the steady-state condition, and were compared to currents in control (Tyrode's) solution. […] For analysis of delayed rectifying K^+ channels, currents were measured at command potentials of +40 mV during steady-state; inwardly rectifying currents, when investigated, were measured at -130 mV. Significant effects of FFAs on K^+ currents were determined by paired Student's t tests (α=0.05) compared to control currents immediately preceding the test stimulus. […]

[2] = test system: delayed rectifier K^+ channel; assay: whole-cell patch clamp, delayed rectifier K^+ channel (steady-state outward K^+ current at +40 mV) in rat fungiform taste receptor cells; assay type: cell-based, rat (Sprague-Dawley)
Description: (§4) The effects of free fatty acids ("FFAs") on taste buds isolated from rat fungiform papillae were examined to determine if a chemosensory (i.e. non-textural) cue for fats is located in the mouth. The methods used to isolate TRCs were generally as described in Behe et al., "Membrane Currents in Taste Cells of the Rat Fungiform Papilla: Evidence for Two Types of Ca Currents and Inhibition of K Currents by Saccharin," Journal of General Physiology, Vol. 96, pp. 1061-1084 (1990); Doolin et al., "Distribution and Characterization of Functional Amiloride-sensitive Sodium Channels in Rat Tongue," Journal of General Physiology, Vol. 107. pp. 545-554 (1996); and Gilbertson et al., "Proton Currents Through Amiloride-sensitive Na^+ Channels in Isolated Hamster Taste Cells: Enhancement by Vasopressin and cAMP," Neuron, Vol. 10, pp. 931-942 (1993).
(§5) Individual fungiform taste buds were isolated from the tongues of 2- to 5-month-old male Sprague-Dawley rats (Harlan Sprague Dawley, Indianapolis,Ind.). Animals were housed individually in polycarbonate cages with food (Purina #5001, Purina Mills, St. Louis, Mo.) provided ad lib. The room containing the rats was maintained at 21-23° C. on a 0700-1900 h light-dark cycle. All animal care and experimental procedures were in accordance with National Institutes of Health guidelines, and were approved by the Institutional Animal Care and Use Committee of the Pennington Biomedical Research Center.
(§6) Tongues were removed from euthanized rats, and were immediately placed in ice-cold Tyrode's solution. To remove the lingual epithelium containing the taste buds from the underlying muscle layer, approximately 1.0 ml of Tyrode's solution containing 0.3 mg/ml collagenase A (Boehringer Mannheim Corp., Indianapolis, Ind.), 2.5 mg/ml dispase (grade II; Boehringer Mannheim) and 1.0 mg/ml trypsin inhibitor (type I-S; Sigma Chemical Co., St. Louis, Mo.) was injected below the epithelium. The injected tongue was placed in Ca--Mg free Tyrode's solution and bubbled with O2 for 33-35 min. The lingual epithelium was removed and pinned serosal side up, allowing access to the taste buds. Fungiform taste buds were removed individually by gentle suction with a large, firepolished pipette (~200 μm diameter), and were plated onto Cell-Tak™-coated microscope slides (Collaborative Biomedical Prod., Bedford, Mass.) fitted with an O-ring which served as a recording chamber. Once plated, cells were perfused continually with Tyrode's or various test solutions. Taste buds isolated in this manner were used for up to 6 hours without any noticeable morphological or physiological decrement.
(§7) All chemicals were obtained from Sigma Chemical Corporation (St. Louis, Mo.) unless otherwise indicated. Normal extracellular solution (Tyrode's) contained (in mM): NaCl, 140; KCl, 5; CaCl2, 1; MgCl2, 1; HEPES (N-[2-hydroxyethyl] piperazine-N'-[2-ethanesulfonic acid), 10; glucose, 10; and sodium pyruvate, 10. The pH was adjusted to 7.40 with NaOH. In Ca^2+ --Mg^2+ free Tyrode's solution, 2 mM BAPTA (1,2-bis(2-aminophenoxy) ethane-N,N,N',N'-tetraacetic acid) (Molecular Probes, Eugene, Oreg.) replaced CaCl2 and MgCl2. Other components were identical to Tyrode's solution. Intracellular (pipette) solution contained (in mM): KCl, 140; CaCl2, 1 [free Ca^2+ was ~10^-8 M]; MgCl2, 2; HEPES, 10; EGTA (ethylene glycol-bis(β-aminoethylether)-N,N,N',N'-tetraacetic acid), 11; and ATP, 3. The pH was adjusted to 7.20 with KOH.
(§8) Free fatty acids (FFAs) were stored below -20° C. until the day of use, when they were dissolved in warm ethanol and diluted to final working concentrations in Tyrode's solution. Final ethanol concentrations in Tyrode's were below 0.1%; the ethanol had no effect on ionic currents in any TRCs. All FFAs were applied by bath perfusion. In some experiments, FFA-containing solutions were bubbled continuously with nitrogen to retard oxygenation. […]

[3] = test system: inwardly rectifying K^+ channels (Kir); assay: whole-cell patch clamp, inwardly rectifying K^+ channels (Kir) at -130 mV in rat fungiform taste receptor cells; assay type: cell-based, rat (Sprague-Dawley)
Description: as §4, §5, §6, §7, §8

[4] = test system: delayed rectifying K^+ channels; assay: patch clamp, delayed rectifying K^+ channels of TRCs isolated from Osborne-Mendel rats; assay type: cell-based
Description: (§9) To determine if there is a link between the sensitivity of TRCs to PUFAs and dietary fat preferences, the PUFA-sensitivities of TRCs using patch clamp techniques were compared on TRCs isolated from Osborne-Mendel ("O-M") rats and S5B/P1 rats, strains with different dietary preferences. O-M rats prefer fat over carbohydrate, while S5B/P1 rats prefer carbohydrate over fat. […] Rats whose TRCs were more sensitive to the fatty acids have a preference for a lower-fat diet; while rats whose TRCs are less sensitive to fatty acids seek diets that are higher in fat.

[5] = test system: delayed rectifying K^+ channels; assay: patch clamp, delayed rectifying K^+ channels of TRCs isolated from S5B/P1 rats; assay type: cell-based
Description: as §9

[6] = test system: cardiac atrial cells; settings: applied extracellularly; cited from earlier work
[7] = test system: ATP-inhibitable K channel (KATP); assay: whole-cell patch clamp, ATP-inhibitable K channel (KATP) residual current in rat fungiform taste receptor cells; assay type: cell-based, rat (Sprague-Dawley); settings: glyburide 20 μM; in presence of arachidonic acid and 4-AP; n=6 cells
Method: as §1, §2, §3

SMILES: Nc1ccncc1 [4-aminopyridine]
- inhibition of the rapidly inactivating current (IA) [1]: reversibly and completely inhibited

SMILES: CCCCC/C=C\C/C=C\C/C=C\C/C=C\CCCC(=O)O [arachidonic acid]
- effect on outward K^+ currents, specificity test ([2]; 10 μM, >10 min (maximal effect), significance by paired t test): significantly reduced outward K^+ currents
- inhibition of the voltage-activated steady-state outward K^+ current ([2]; 10 μM, +40 mV, n=44 cells): 83%
- mean time constant (ton) for the onset of effects ([2]; 10 μM, n=18 cells): 4.37 ± 1.8 min
- inhibition of delayed rectifier K^+ channel in presence of NDGA and indomethacin ([2]; NDGA 10 μM and indomethacin 200 μM, n=5 cells): inhibited the delayed rectifier K^+ channel
- effect on outward K^+ currents / delayed rectifier K^+ channel (in words) ([2]; arachidonic acid 0.25-100 μM, extracellular, all cells examined): reversible, slowly developing inhibition of the delayed rectifier K^+ channel
- time to reach maximum effect on outward K^+ currents ([2]; extracellular arachidonic acid): 10 to 15 min
- recovery time constant (toff) from inhibition ([2]; n=18 cells): 10.92 ± 5.9 min
- time constant for inactivation of the outward K^+ current ([2]; presence of 10 μM arachidonic acid, control 457±103 msec, n=20): 42 ± 26 ms
- Ki ([2]; read-out: inhibition constant (Ki) for the delayed rectifier K^+ channel): 1.02 µM
- stimulation of taste receptor cells ([2]; summary statement): stimulate taste receptor cells
- change of Kir over control levels, in words ([3]; 10 μM arachidonic acid, approximately 30% of cells): approximately doubling Kir over control levels
- Kir compared to control ([3]; 10 μM, -130 mV, n=16 cells, % of control): 191%±19.7
- share of cells in which Kir was activated ([3]; 10 μM, subset of cells, of the total): approximately 30%
- activation of Kir in cells that did not show this current in control ([3]; cells without Kir in control (saline) conditions): not able to activate Kir
- effect on inward currents in cells without inward rectification ([3]; potentials more negative than -100 mV, n=37 cells): not significantly affected
- inhibition of the delayed rectifying K^+ channels, O-M rats [4]: inhibited the delayed rectifying K^+ channels in a concentration-dependent manner
- sensitivity of S5B/P1 TRCs to inhibition compared with O-M TRCs ([5]; 10 μM, versus TRCs from O-M rats): significantly more sensitive to inhibition
- inhibition of the delayed rectifying K^+ channels, S5B/P1 rats ([5]; TRCs from S5B/P1 rats): inhibited the delayed rectifying K^+ channels in a concentration-dependent manner
- response of cardiac cells [6]: responded

SMILES: COc1ccc(Cl)cc1C(=O)NCCc1ccc(S(=O)(=O)NC(=O)NC2CCCCC2)cc1 [glyburide]
- block of the residual (KATP) current [7]: blocked the residual current
